Reference: patent US11813340B2, “PSMA targeted radiohalogenated urea-polyaminocarboxylates for cancer radiotherapy” (The Johns Hopkins University, priority 2018, dated 2023)
Like-named read-outs stand apart in the source and are kept apart here.

Tested on: PSMA+PC3-PIP and PSMA-PC3-flu flank xenografts
Protocol: Final compounds were purified by HPLC. […] Organs were harvested 1, 4, and 24 h post-injection (n=5 per time point).

[1] = 1-hour, Blocker VK-02-90 0.5 nmole
[2] = 1-hour, Blocker VK-02-90 1.0 nmole
[3] = 1-hour, Blocker VK-02-90 5.0 nmole
[4] = 1-hour, Blocker YC-I-27 0.5 nmole
[5] = 1-hour, Blocker YC-I-27 1.0 nmole
[6] = 1-hour, Blocker YC-I-27 5 nmole
[7] = 4-hr, Blocker VK-02-90 0.5 nmole
[8] = 4-hr, Blocker VK-02-90 1.0 nmole
[9] = 4-hr, Blocker VK-02-90 5.0 nmole

Q: With `O=C([O-])CN1CCN(CC(=O)[O-])CCN(CC(=O)NCCCCC(=O)N(CCCC[C@H](NC(=O)N[C@@H](CCC(=O)O)C(=O)O)C(=O)O)Cc2ccc([125I])cc2)CCN(CC(=O)[O-])CC1.[Lu+3]` [[^125I]VK-02-90-Lu] as the molecule, how does the “Biodistribution, Blood” value (1-hour, Blocker None) read?
A: 1.1 ± 0.1 % injected dose/g

Q: What about the “Biodistribution, Flu tumor” value (1-hour, Blocker None) of the same molecule?
A: 1.0 ± 0.2 % injected dose/g

Q: What about the “Biodistribution, Kidneys” value (1-hour, Blocker None) of the same molecule?
A: 129 ± 15 % injected dose/g

Q: And the “Biodistribution, Lacrimal glands” value (1-hour, Blocker None)?
A: 2.1 ± 0.9 % injected dose/g

Q: And the “Biodistribution, PIP tumor” value (1-hour, Blocker None)?
A: 26.0 ± 3.0 % injected dose/g

Q: What about the “Biodistribution, Salivary glands” value (1-hour, Blocker None) of the same molecule?
A: 2.3 ± 0.5 % injected dose/g

Q: What about the “Biodistribution, Spleen” value (1-hour, Blocker None) of the same molecule?
A: 4.3 ± 0.9 % injected dose/g

Q: And the “Biodistribution, Stomach” value (1-hour, Blocker None)?
A: 1.7 ± 0.3 % injected dose/g

Q: And the “Biodistribution, Blood” value [1]?
A: 0.4 ± 0.1 % injected dose/g

Q: What about the “Biodistribution, Flu tumor” value [1] of the same molecule?
A: 0.6 ± 0.3 % injected dose/g

Q: And the “Biodistribution, Kidneys” value [1]?
A: 9.9 ± 2.5 % injected dose/g

Q: What about the “Biodistribution, Lacrimal glands” value [1] of the same molecule?
A: 0.4 ± 0.1 % injected dose/g

Q: And the “Biodistribution, PIP tumor” value [1]?
A: 36.7 ± 6.8 % injected dose/g

Q: What about the “Biodistribution, Salivary glands” value [1] of the same molecule?
A: 0.2 ± 0.03 % injected dose/g

Q: And the “Biodistribution, Spleen” value [1]?
A: 1.1 ± 0.4 % injected dose/g

Q: What about the “Biodistribution, Stomach” value [1] of the same molecule?
A: 0.2 ± 0.1 % injected dose/g

Q: What about the “Biodistribution, Blood” value [2] of the same molecule?
A: 0.4 ± 0.1 % injected dose/g

Q: And the “Biodistribution, Flu tumor” value [2]?
A: 0.5 ± 0.1 % injected dose/g

Q: And the “Biodistribution, Kidneys” value [2]?
A: 6.5 ± 0.9 % injected dose/g

Q: What about the “Biodistribution, Lacrimal glands” value [2] of the same molecule?
A: 0.4 ± 0.1 % injected dose/g

Q: What about the “Biodistribution, PIP tumor” value [2] of the same molecule?
A: 35.1 ± 9.0 % injected dose/g

Q: What about the “Biodistribution, Salivary glands” value [2] of the same molecule?
A: 0.2 ± 0.06 % injected dose/g

Q: What about the “Biodistribution, Spleen” value [2] of the same molecule?
A: 1.1 ± 0.4 % injected dose/g

Q: What about the “Biodistribution, Stomach” value [2] of the same molecule?
A: 0.2 ± 0.04 % injected dose/g

Q: What about the “Biodistribution, Blood” value [3] of the same molecule?
A: 0.5 ± 0.1 % injected dose/g

Q: And the “Biodistribution, Flu tumor” value [3]?
A: 0.9 ± 0.3 % injected dose/g

Q: And the “Biodistribution, Kidneys” value [3]?
A: 4.2 ± 0.5 % injected dose/g

Q: What about the “Biodistribution, Lacrimal glands” value [3] of the same molecule?
A: 0.4 ± 0.03 % injected dose/g

Q: And the “Biodistribution, PIP tumor” value [3]?
A: 23.5 ± 4.3 % injected dose/g

Q: What about the “Biodistribution, Salivary glands” value [3] of the same molecule?
A: 0.3 ± 0.1 % injected dose/g

Q: And the “Biodistribution, Spleen” value [3]?
A: 0.7 ± 0.2 % injected dose/g

Q: What about the “Biodistribution, Stomach” value [3] of the same molecule?
A: 0.2 ± 0.06 % injected dose/g

Q: And the “Biodistribution, Blood” value [4]?
A: 1.1 ± 0.1 % injected dose/g

Q: And the “Biodistribution, Flu tumor” value [4]?
A: 1.0 ± 0.3 % injected dose/g

Q: And the “Biodistribution, Kidneys” value [4]?
A: 4.2 ± 1.3 % injected dose/g

Q: And the “Biodistribution, Lacrimal glands” value [4]?
A: 0.5 ± 0.1 % injected dose/g

Q: And the “Biodistribution, PIP tumor” value [4]?
A: 41.8 ± 4.2 % injected dose/g

Q: What about the “Biodistribution, Salivary glands” value [4] of the same molecule?
A: 3.2 ± 0.7 % injected dose/g

Q: What about the “Biodistribution, Spleen” value [4] of the same molecule?
A: 0.8 ± 0.2 % injected dose/g

Q: What about the “Biodistribution, Stomach” value [4] of the same molecule?
A: 1.8 ± 0.2 % injected dose/g

Q: And the “Biodistribution, Blood” value [5]?
A: 1.0 ± 0.1 % injected dose/g

Q: What about the “Biodistribution, Flu tumor” value [5] of the same molecule?
A: 0.8 ± 0.2 % injected dose/g

Q: What about the “Biodistribution, Kidneys” value [5] of the same molecule?
A: 2.4 ± 0.8 % injected dose/g

Q: And the “Biodistribution, Lacrimal glands” value [5]?
A: 0.6 ± 0.05 % injected dose/g

Q: What about the “Biodistribution, PIP tumor” value [5] of the same molecule?
A: 29.1 ± 2.4 % injected dose/g

Q: What about the “Biodistribution, Salivary glands” value [5] of the same molecule?
A: 2.9 ± 0.4 % injected dose/g

Q: What about the “Biodistribution, Spleen” value [5] of the same molecule?
A: 0.6 ± 0.1 % injected dose/g

Q: What about the “Biodistribution, Stomach” value [5] of the same molecule?
A: 1.8 ± 0.3 % injected dose/g

Q: And the “Biodistribution, Blood” value [6]?
A: 1.1 ± 0.2 % injected dose/g

Q: What about the “Biodistribution, Flu tumor” value [6] of the same molecule?
A: 0.8 ± 0.2 % injected dose/g

Q: What about the “Biodistribution, Kidneys” value [6] of the same molecule?
A: 2.3 ± 0.7 % injected dose/g

Q: What about the “Biodistribution, Lacrimal glands” value [6] of the same molecule?
A: 1.1 ± 0.6 % injected dose/g

Q: And the “Biodistribution, PIP tumor” value [6]?
A: 20.1 ± 2.8 % injected dose/g

Q: What about the “Biodistribution, Salivary glands” value [6] of the same molecule?
A: 5.1 ± 1.7 % injected dose/g

Q: What about the “Biodistribution, Spleen” value [6] of the same molecule?
A: 0.7 ± 0.1 % injected dose/g

Q: And the “Biodistribution, Stomach” value [6]?
A: 2.2 ± 0.7 % injected dose/g

Q: And the “Biodistribution, Blood” value (4-hr, Blocker None)?
A: 0.3 ± 0.2 % injected dose/g

Q: And the “Biodistribution, Flu tumor” value (4-hr, Blocker None)?
A: 0.25 ± 0.1 % injected dose/g

Q: And the “Biodistribution, Kidneys” value (4-hr, Blocker None)?
A: 9.5 ± 2.5 % injected dose/g

Q: And the “Biodistribution, Lacrimal glands” value (4-hr, Blocker None)?
A: 0.4 ± 0.2 % injected dose/g

Q: What about the “Biodistribution, PIP tumor” value (4-hr, Blocker None) of the same molecule?
A: 27.4 ± 7.5 % injected dose/g

Q: What about the “Biodistribution, Salivary glands” value (4-hr, Blocker None) of the same molecule?
A: 1.8 ± 0.2 % injected dose/g

Q: And the “Biodistribution, Spleen” value (4-hr, Blocker None)?
A: 0.6 ± 0.2 % injected dose/g

Q: And the “Biodistribution, Stomach” value (4-hr, Blocker None)?
A: 0.8 ± 0.5 % injected dose/g

Q: What about the “Biodistribution, Blood” value [7] of the same molecule?
A: 0.02 ± 0.01 % injected dose/g

Q: What about the “Biodistribution, Flu tumor” value [7] of the same molecule?
A: 0.1 ± 0.02 % injected dose/g

Q: What about the “Biodistribution, Kidneys” value [7] of the same molecule?
A: 2.1 ± 0.7 % injected dose/g

Q: What about the “Biodistribution, Lacrimal glands” value [7] of the same molecule?
A: 0.1 ± 0.03 % injected dose/g

Q: And the “Biodistribution, PIP tumor” value [7]?
A: 24.8 ± 2.0 % injected dose/g

Q: And the “Biodistribution, Salivary glands” value [7]?
A: 0.08 ± 0.04 % injected dose/g

Q: What about the “Biodistribution, Spleen” value [7] of the same molecule?
A: 0.2 ± 0.1 % injected dose/g

Q: What about the “Biodistribution, Stomach” value [7] of the same molecule?
A: 0.06 ± 0.01 % injected dose/g

Q: What about the “Biodistribution, Blood” value [8] of the same molecule?
A: 0.2 ± 0.01 % injected dose/g

Q: And the “Biodistribution, Flu tumor” value [8]?
A: 0.1 ± 0.03 % injected dose/g

Q: What about the “Biodistribution, Kidneys” value [8] of the same molecule?
A: 1.4 ± 0.4 % injected dose/g

Q: And the “Biodistribution, Lacrimal glands” value [8]?
A: 0.1 ± 0.05 % injected dose/g

Q: And the “Biodistribution, PIP tumor” value [8]?
A: 27.1 ± 3.6 % injected dose/g

Q: What about the “Biodistribution, Salivary glands” value [8] of the same molecule?
A: 0.1 ± 0.02 % injected dose/g

Q: And the “Biodistribution, Spleen” value [8]?
A: 0.2 ± 0.1 % injected dose/g

Q: What about the “Biodistribution, Stomach” value [8] of the same molecule?
A: 0.1 ± 0.03 % injected dose/g

Q: What about the “Biodistribution, Blood” value [9] of the same molecule?
A: 0 % injected dose/g

Q: What about the “Biodistribution, Flu tumor” value [9] of the same molecule?
A: 0.1 ± 0.01 % injected dose/g

Q: What about the “Biodistribution, Kidneys” value [9] of the same molecule?
A: 0.9 ± 0.3 % injected dose/g

Q: And the “Biodistribution, Lacrimal glands” value [9]?
A: 0.1 ± 0.1 % injected dose/g

Q: What about the “Biodistribution, PIP tumor” value [9] of the same molecule?
A: 18.8 ± 2.0 % injected dose/g

Q: And the “Biodistribution, Salivary glands” value [9]?
A: 0.05 ± 0.02 % injected dose/g
